A short description of data set [1]: Solubility of the compound. The data set is classed as physicochemical.
Data set [2] can be described thus: Inhibition of Hsp90 assessed as Her2 interaction at up to 11 uM by Western blotting. A general note: A western blot detects proteins with antibodies after separation by electrophoresis.
A short description of data set [3]: Inhibition of Hsp90 assessed as IP6K2 interaction at up to 11 uM by Western blotting.
For data set [4], the system named is HCT-116. The data set is described as follows: Cytotoxicity against human HCT116 cells after 72 hrs by [3H]thymidine incorporation assay.
Data set [5] concerns HCT-116. The data set is described as follows: Cytotoxicity against human HCT116 cells at 10 uM after 72 hrs by [3H]thymidine incorporation assay. Conditions: read-out: GI.
A short description of data set [6]: Chemical stability of the compound assessed as half life. It counts as physicochemical.
Data set [7] in a line: Efflux ratio of permeability in human Caco-2 cells. It counts as ADME, cell-based. On the technique in general: Caco-2 cells form a polarised layer with tight junctions and transporters.

The structures appear in SMILES notation. ≈ marks a conversion by molar mass, not a printed value. Calls of active or inactive are those of the source. The rule behind the calls is not given here. Non-standard residues stand in square brackets, D forms with d. Residues, ends and D or L forms follow the SMILES beside them. *: point of attachment. dNMeF = CN[C@H](Cc1ccccc1)C(=O)O; Cha = N[C@@H](CC1CCCCC1)C(=O)O; NMeK = CN[C@@H](CCCCN)C(=O)O; Boc = CC(C)(C)OC(=O)*; Bn = c1ccc(C*)cc1

The term solubility denotes the concentration that dissolves in the medium under given conditions. Read a low solubility as a poorly soluble substance. In general, IC50 refers to the midpoint of a concentration-inhibition curve. The low end stands for higher potency, the high end for lower potency. As to `CC(C)[C@H]1NC(=O)[C@@H](Cc2ccccc2)N(C)C(=O)[C@H](Cc2ccccc2)NC(=O)[C@H](COCc2ccccc2)NC(=O)[C@H](CC2CCCCC2)NC1=O` (cyclo([Cha]S(Bn)F[dNMeF][dV])), the solubility in data set [1] was less than 5 µM. Further, the inhibition result in data set [2] and in data set [3] was “Active” throughout. The compound also came in with an IC50 in the data set with HCT-116 [4] not above 1.9 µM. Also, the inhibition of growth at 10 µM in the data set with HCT-116 [5] is 93%.
As for `CC(C)C[C@@H]1NC(=O)[C@H](Cc2ccccc2)NC(=O)[C@@H](Cc2ccccc2)NC(=O)[C@@H](CCCCNC(=O)OCc2ccccc2)NC(=O)[C@H](C(C)C)N(C)C1=O`, the inhibition of growth at 10 µM with HCT-116 [5] was 36%.
In the data set on HCT-116 [4], `CC(C)C[C@@H]1NC(=O)[C@@H]([C@@H](OCc2ccccc2)c2ccccc2)NC(=O)[C@@H](Cc2ccccc2)NC(=O)[C@@H](CC(C)C)NC(=O)[C@H](C(C)C)N(C)C1=O` (mixture of isomers) returned an IC50 of 8.9 µM. Further, the inhibition of growth at 10 µM in the data set with HCT-116 [5] stood at 63%.
`CC(C)C[C@@H]1NC(=O)[C@H](Cc2ccccc2)NC(=O)[C@H](CCCCNC(=O)OC(C)(C)C)NC(=O)[C@H](CC(C)C)NC(=O)[C@@H](C(C)C)NC1=O`: the inhibition of growth at 10 µM in the data set with HCT-116 [5] worked out at 9%.
On to `CC(C)C[C@@H]1NC(=O)[C@H](CC(C)C)NC(=O)[C@H](C(C)C)NC(=O)[C@@H](Cc2ccccc2)NC(=O)[C@H](Cc2ccccc2)NC1=O`, for which, in the data set on HCT-116 [5], the inhibition of growth at 10 µM turned out to be 21%.
Turning to `CC(C)C[C@@H]1NC(=O)[C@H](Cc2ccccc2)NC(=O)[C@@H](CC(C)C)NC(=O)[C@@H](CC(C)C)NC(=O)[C@H](C(C)C)NC1=O`, the inhibition of growth at 10 µM in the data set on HCT-116 [5] was 20%.
Same read-out and setting: as for `CC(C)C[C@@H]1NC(=O)[C@H](CC(C)C)NC(=O)[C@H](C(C)C)NC(=O)[C@@H](Cc2ccccc2)N(C)C(=O)[C@H](Cc2ccccc2)NC1=O`, the figure is 99%.
For the compound `CC(C)[C@H]1NC(=O)[C@@H](Cc2ccccc2)NC(=O)[C@H](Cc2ccccc2)NC(=O)[C@H](COCc2ccccc2)NC(=O)[C@H](CC2CCCCC2)NC1=O` (cyclo([Cha]S(Bn)F[dF][dV])), the inhibition entry in data set [2] and in data set [3] was “inactive” each time. Also, in the data set on HCT-116 [5], the inhibition of growth at 10 µM amounted to 10%.
For the compound `CC(C)C[C@@H]1NC(=O)[C@H](CC(C)C)NC(=O)[C@H](C(C)C)NC(=O)[C@H](CC(C)C)NC(=O)[C@@H](Cc2c[nH]c3ccccc23)NC1=O`, the inhibition of growth at 10 µM in the data set on HCT-116 [5] was found to be 30%.
In turn, `CC(C)C[C@@H]1NC(=O)[C@H]([C@@H](OCc2ccccc2)c2ccccc2)NC(=O)[C@@H](Cc2ccccc2)NC(=O)[C@@H](CC(C)C)NC(=O)[C@H](C(C)C)N(C)C1=O` returned an IC50 in the data set on HCT-116 [4] of 5.8 µM. In addition, in the data set on HCT-116 [5], the inhibition of growth at 10 µM is 64%.
For the compound `CC(C)C[C@@H]1NC(=O)[C@@H](CC(C)C)NC(=O)[C@@H](C(C)C)NC(=O)[C@H](CC(C)C)N(C)C(=O)[C@H](Cc2ccccc2)NC1=O`, the inhibition of growth at 10 µM with HCT-116 [5] was 30%.
Consider `CC(C)C[C@@H]1NC(=O)[C@H](Cc2ccccc2)NC(=O)[C@H](CC(C)C)N(C)C(=O)[C@H](CC(C)C)NC(=O)[C@H](C(C)C)NC1=O`, for which, in the data set with HCT-116 [5], the inhibition of growth at 10 µM stood at 35%.
As for `CC(C)C[C@@H]1NC(=O)[C@H](Cc2ccccc2)NC(=O)[C@@H](Cc2ccccc2)NC(=O)[C@@H](CC(C)C)NC(=O)[C@H](C(C)C)NC1=O`, the inhibition of growth at 10 µM in the data set on HCT-116 [5] stood at 28%.
Regarding `CC(C)C[C@@H]1NC(=O)[C@H](C(C)C)NC(=O)[C@@H](Cc2ccccc2)N(C)C(=O)[C@H](Cc2ccccc2)NC(=O)[C@@H](CC(C)C)N(C)C1=O`, the inhibition of growth at 10 µM in the data set with HCT-116 [5] turned out to be 47%.
With `CC(C)C[C@@H]1NC(=O)[C@H](CC(C)C)NC(=O)[C@H](C(C)C)NC(=O)[C@H](CC(C)C)NC(=O)[C@@H](Cc2ccccc2)NC1=O`, the inhibition of growth at 10 µM in the data set on HCT-116 [5] was determined as 26%.
What is called half-life is how long it takes for the measured level to halve. A word on the efflux ratio: it is a quotient of directional permeabilities that is used to spot active efflux. On to `CC(C)C[C@@H]1NC(=O)[C@@H]([C@H](OCc2ccccc2)c2ccccc2)NC(=O)[C@@H](Cc2ccccc2)NC(=O)[C@@H](CC(C)C)NC(=O)[C@H](C(C)C)N(C)C1=O`, for which the concentration in solution in data set [1] (solubility) came to 7 µM (≈ 5.18 µg/mL). In data set [6], the half-life is more than 2.87 h. In addition, the efflux ratio in data set [7] stood at 3. In the data set on HCT-116 [4], 3.2 µM corresponded to half-maximal inhibition (IC50). For the same compound, in the data set with HCT-116 [5], the inhibition of growth at 10 µM amounted to 94%.
For `CC(C)C[C@@H]1NC(=O)[C@H](Cc2ccccc2)NC(=O)[C@H](CCCCN)N(C)C(=O)[C@H](CC(C)C)NC(=O)[C@H](C(C)C)NC1=O` (cyclo(FLVL[NMeK])), in the data set on HCT-116 [5], the inhibition of growth at 10 µM amounted to 0%.
For `CC(C)C[C@@H]1NC(=O)[C@H](Cc2ccccc2)NC(=O)[C@H](CCCCNC(=O)OC(C)(C)C)N(C)C(=O)[C@H](CC(C)C)NC(=O)[C@H](C(C)C)NC1=O` (cyclo(FLVL[NMeK](Boc))), in the data set on HCT-116 [5], the inhibition of growth at 10 µM was found to be 58%.
Turning to `CC(C)C[C@@H]1NC(=O)[C@@H](C(C)C)NC(=O)[C@@H](CC(C)C)NC(=O)[C@H](Cc2ccccc2)N(C)C(=O)[C@H](CC(C)C)NC1=O`, in the data set on HCT-116 [5], the inhibition of growth at 10 µM worked out at 30%.
Turning to `CC(C)C[C@@H]1NC(=O)[C@H](CC(C)C)NC(=O)[C@H](C(C)C)NC(=O)[C@H](CC(C)C)NC(=O)[C@H](Cc2ccccc2)NC1=O`, half-maximal inhibition in the data set with HCT-116 [4] (IC50) required 19.7 µM.
Regarding `CC(C)C[C@@H]1NC(=O)[C@H](Cc2ccccc2)NC(=O)[C@H](CCCCN)NC(=O)[C@H](CC(C)C)NC(=O)[C@H](C(C)C)NC1=O` (cyclo(FLVLK)), the inhibition of growth at 10 µM with HCT-116 [5] is 0%.
The same measure, in the same setting: to `CC(C)C[C@@H]1NC(=O)[C@H](Cc2ccccc2)NC(=O)[C@@H](CC(C)C)N(C)C(=O)[C@H](CC(C)C)NC(=O)[C@H](C(C)C)NC1=O` belongs 32%.
For `CC(C)C[C@@H]1NC(=O)[C@H](CC(C)C)NC(=O)[C@H](C(C)C)NC(=O)[C@H](CC(C)C)NC(=O)[C@@H](Cc2ccc(O)cc2)NC1=O`, the inhibition of growth at 10 µM with HCT-116 [5] was 50%.
On to `CC(C)C[C@@H]1NC(=O)[C@H](Cc2ccccc2)NC(=O)[C@H](CCCCNC(=O)OC(C)(C)C)NC(=O)[C@H](CC(C)C)NC(=O)[C@H](C(C)C)NC1=O`, for which the inhibition of growth at 10 µM in the data set with HCT-116 [5] came out at 0%.
Take `CC(C)C[C@@H]1NC(=O)[C@H](C(C)C)NC(=O)[C@@H](Cc2ccccc2)N(C)C(=O)[C@H](Cc2ccccc2)NC(=O)[C@H](CCCCN)NC1=O` (cyclo(F[dNMeF]VLK)): the inhibition of growth at 10 µM in the data set on HCT-116 [5] was 0%.
Take `CC(C)C[C@@H]1NC(=O)[C@@H](Cc2ccccc2)NC(=O)[C@@H](CC(C)C)NC(=O)[C@H](CC(C)C)N(C)C(=O)[C@H](C(C)C)NC1=O`: the inhibition of growth at 10 µM in the data set with HCT-116 [5] is 18%.
On to `CC(C)C[C@@H]1NC(=O)[C@H](CC(C)C)NC(=O)[C@@H](C(C)C)NC(=O)[C@H](CC(C)C)NC(=O)[C@H](Cc2ccccc2)NC1=O`, for which the inhibition of growth at 10 µM with HCT-116 [5] was found to be 8%.
Regarding `CC(C)[C@H]1NC(=O)[C@@H](Cc2ccccc2)N(C)C(=O)[C@H](Cc2ccccc2)NC(=O)[C@H](CO)NC(=O)[C@H](CC2CCCCC2)NC1=O`, in the data set on HCT-116 [5], the inhibition of growth at 10 µM was 18%.
For `CC(C)C[C@@H]1NC(=O)[C@H](C(C)C)NC(=O)[C@@H](CC(C)C)NC(=O)[C@@H](Cc2ccccc2)NC(=O)[C@H](CC(C)C)N(C)C1=O`, the inhibition of growth at 10 µM in the data set with HCT-116 [5] was found to be 15%.
For the compound `CC(C)C[C@@H]1NC(=O)[C@H](CC(C)C)NC(=O)[C@H](C(C)C)NC(=O)[C@@H](CC(C)C)NC(=O)[C@@H](Cc2ccccc2)NC1=O`, in the data set with HCT-116 [5], the inhibition of growth at 10 µM came out at 14%.
`CC(C)C[C@@H]1NC(=O)[C@H](CC(C)C)N(C)C(=O)[C@H](C(C)C)NC(=O)[C@@H](CC(C)C)NC(=O)[C@H](Cc2ccccc2)NC1=O`: the inhibition of growth at 10 µM in the data set on HCT-116 [5] turned out to be 3%.
As for `CC(C)C[C@@H]1NC(=O)[C@@H](Cc2ccccc2)NC(=O)[C@@H](Cc2ccccc2)NC(=O)[C@@H](CC(C)C)N(C)C(=O)[C@H](C(C)C)N(C)C1=O`, the inhibition of growth at 10 µM in the data set with HCT-116 [5] is 15%.
In the case of `CC(C)C[C@@H]1NC(=O)[C@H](Cc2ccccc2)NC(=O)[C@H](CCCCN)NC(=O)[C@H](CC(C)C)NC(=O)[C@@H](C(C)C)NC1=O` (cyclo(FL[dV]LK)), in the data set with HCT-116 [5], the inhibition of growth at 10 µM stood at 0%.
Take `CC(C)C[C@@H]1NC(=O)[C@H](CC(C)C)NC(=O)[C@@H](C(C)C)NC(=O)[C@@H](Cc2ccccc2)NC(=O)[C@H](Cc2ccccc2)NC1=O`: in the data set with HCT-116 [5], the inhibition of growth at 10 µM worked out at 4%.

For the origin of these results see ChEMBL document CHEMBL1240508, “Design and synthesis of Hsp90 inhibitors: exploring the SAR of Sansalvamide A derivatives” (Bioorg Med Chem, 2010).
